Measurements published in patent US20230052667A1, “AGENT FOR MAINTAINING OR ENHANCING COLLAGEN PRODUCTION ABILITY” (Shiseido Company, Ltd., priority 2020, published 2023).

Tested on: human skin-derived fibroblasts
Assay: Collagen quantification in fibroblasts after artificial sunlight irradiation through the wavelength conversion substance
Format: cell-based
Details: artificial sunlight 80 minutes passed through substance (10% phosphor film or 1% aqueous solution, no cell contact); collagen measured 3 days after irradiation; UV-only control 14 μg collagen/well
Method: Preparation method: A film containing 10% Zinc Oxide phosphor, a film containing 10% magnesium titanate phosphor were used, and C-phycocyanin was dissolved in ultrapure water at a concentration of 1% and used as a solution. • Cells: human skin-derived fibroblasts • Collagen assay kit: Cosmo Bio Co., COL-001 • DNA-quantitation kit: Cosmo Bio Co., AK06 • Artificial Sunlight Irradiation System: Celick Corporation: XC-500BF
Human skin-derived fibroblasts cultured in 75 cm^2 flasks were treated with trypsin, and after harvesting the cells, the cells were seeded at a density of 2×10^5 cells/dish using medium on five 6-well plates according to the plate arrangement below. […]
After 3 days from illumination, culture supernatants were removed from wells for collagen quantitation in each treatment group and washed with PBS. Collagen in human fibroblast layers was extracted and measured according to the protocol of the collagen quantitation kit (https://search.cosmobio.co.jp/cosmo_searchp/search_gate2/docs/CSR_/COL001.20190327.pdf). In addition, the amount of DNA in samples after collagen extraction was determined for correction of collagen quantitative results according to the protocol of the Quantitative Kit of DNA (https://search.cosmobio.co.jp/cosmo)_search_p/search_gate2/docs/PMC_/AK06.20140507.pdf).

C-phycocyanin
collagen produced by UV-irradiated fibroblasts: 25 μg collagen/well
